Patent US20220096592A1, “PIC1 VARIANTS WITH IMPROVED SOLUBILITY AND METHODS OF USING THE SAME” (priority 2019, published 2022)
Entries after “also recorded” stand apart in the source; their conditions may differ.

Tests used:
[1] = test system: complement-mediated hemolysis of the patient's erythrocytes; assay: hemolytic complement assay with plasma and erythrocytes of a DHTR patient; assay type: cell-based, human; details: complement permissive buffer GVBS++, increasing concentrations, FIG. 13; listed as PIC1
Experimental: Discarded de-identified blood was obtained from routine medical management blood draws from the patient prior to treatment with eculizumab. […] Complement permissive GVBS^++ buffer is veronal-buffered saline with 0.1% gelatin, 0.15 mM CaCl2, and 1 mM MgCl2 [11]. Complement inhibitory buffer GVBS^−− is a veronal-buffered saline with 0.1% gelatin and 10 mM EDTA. Approximately 5×10^7 washed erythrocytes were incubated with 20% plasma in a reaction volume of 0.15 ml for 1 hour at 37° C.
Erythrocytes were sedimented by centrifugation at 1,500×g for 5 minutes and the supernatant was then recovered. The supernatant was measured on a Bio Tek Synergy HT plate reader spectrophotometer for absorption at 412 nm. Hemolysis was measured by quantitation of free hemoglobin on the spectrophotometer at 412 nm.

[2] = test system: transfused human platelets; assay: human platelets transfused into Wistar rats (platelet refractoriness model); assay type: in vivo, Wistar rat
Experimental: Male Wistar rats approximately 16 weeks old and 250 grams in weight were purchased (Hilltop Scottdale, Pa.) with indwelling intra jugular catheters in place. Rats were sedated with ketamine and acepromazine throughout the course of the experiment with monitoring of vital signs. PIC1 infusions were performed 30 seconds prior to transfusion with PKH26 stained human platelets. Blood samples were collected into K2EDTA microtainer tubes (BD, Franklin Lakes, N.J., USA) from the animals prior to transfusion and then at 0.5, 2, 5, 20, 60 and 120 min after transfusion. Upon completion of the final blood draw, the animals were euthanized using Fatal Plus (Vortech Pharmaceuticals, Dearborn, Mich., USA). A necropsy was completed after euthanasia to collect organs for histopathology.
Flow cytometry was performed using a FACSCalibur flow cytometer (Becton Dickinson, Franklin Lakes, N.J., USA) with DXP 8 Color 488/637/407 upgrade (Cytek Development, Freemont, Calif., USA). The data was acquired using Cytek FlowJo CE version 7.5.110.7. Prior to analysis on the flow cytometry machine, whole rat blood was spun at 500×g for 5 min. The plasma platelet layer was removed and then diluted 1:10 with PBS. Approximately 20,000 events selected for platelet size were run on the […]. Data was analyzed using FlowJo V10.4.2 (FlowJo LLC, Ashland, Oreg., USA).
The unstained native rat platelets are to the left of the vertical line, and the stained transfused platelets are to the right. […] This difference is not noticeable at two minutes.
Total platelet counts for rats transfused with unstained platelets treated with PIC1 or saline control (as shown in FIG. 12B) were evaluated in order to evaluate if similar trends could be determined for unstained platelets. Platelet counts were measured for each blood sample by Antech Diagnostics (Chesapeake, Va.). Decreases in platelet counts were calculated for each time point compared with the maximal platelet count immediately after transfusion at 30 seconds.

[3] = test system: C3 activation on the platelet surface; assay: iC3b ELISA of antibody-sensitized human platelets in normal human serum; assay type: cell-based
Experimental: For experiments sensitizing platelets with human anti-platelet antibody, purified platelets were treated with 4% ITP sera for 15 minutes at 30° C. before adding 2% normal human complement sufficient sera and incubating for 30 minutes at 37° C. For samples containing PIC1, sera and PIC1 were pre-incubated for 5 minutes before combining with sensitized platelets. Samples were then spun and supernatant was removed for C5a analysis by ELISA. A C5a ELISA kit (R&D Systems) was used per manufacturer's instructions. The cells were washed once with GVBS^−− and once with water to lyse the platelets. The remaining cell pellet was treated with 25 mM methylamine for 1 hour at 37° C., spun, and the supernatant was analyzed for iC3b by ELISA. The ELISA for iC3b was performed as previously described, utilizing a goat anti-human C3 antibody (Complement Technology, Tyler, Tex.) for capture, a mouse anti-human iC3b antibody (Quidel, San Diego, Calif.) for probing, and a goat anti-mouse HRP (Sigma-Aldrich, St Louis, Mo.) for detection.
Human platelets were incubated with sensitizing antibody, NHS, or both. […] Complement attack of the platelets and cell viability were assayed. C3 is the central component of the complement activation cascades. The C3 fragment iC3b is an opsonin that contributes to phagocytosis. […]

[4] = water, without PEGylation or DMSO
Experimental: Sarcosine variants and PEG were dissolved in water and the pH was adjusted with NaOH. PA was dissolved in DMSO and then brought up to the final concentration with water resulting in 30% DMSO and pH adjusted. Antibody sensitized sheep erythrocytes (EA), purified C1q and factor B-depleted human sera were purchased from Complement Technology (Tyler, Tex.). Purified myeloperoxidase was purchased from Lee BioSolutions (Maryland Heights, Mo.) and tetramethylbenzidine (TMB) and PicoGreen were purchased from Thermo Fisher (Waltham Mass.).
(PA), peptide derivatives were synthesized with sarcosine residues substituted at all 15 positions. Also included is a peptide in which the vicinal cysteines at positions 9 and 10 (C9,C10) were replaced with a single sarcosine residue.

[5] = test system: Wistar rat sera complement-mediated killing of human platelets; assay: viability of human platelets in Wistar rat sera (Presto Blue); assay type: cell-based; details: increasing concentrations, vs platelets in normal rat sera, P<0.017, FIG. 7C
Experimental: For experiments using rat sera, purified platelets were incubated with 5% Wistar rat sera at different time points (5 min, 20 min and 60 min) in a 37° C. bath. Thereafter, GVBS^−− was added to the mixture and this was spun at 500 g for 5 min at 22° C. After resuspending with 250 ul of PBS, PrestoBlue was added to the cells at a 1:10 dilution and incubated in a 37° C. water bath for 30 min. The cells were then plated and read on a microplate reader at 530 nm. With the addition of PIC1 to sera, there was a preincubation time of 5 minutes before addition of platelets.
In order to evaluate the extent to which rat sera killing of human platelets is mediated by the classical pathway of complement, we utilized PA-dPEG24.

complement activation = details: administered intravascularly into rats, by 30 seconds; cited from earlier work

H2N-IALILEPICCQERAA-dPEG24 (H-IALILEPICCQERAA-dPEG24; cysteine pairing not given here) [PA-dPEG24, 15-amino acid PEGylated peptide, 24 PEG moieties at the C-terminus]
hemolysis of patient erythrocytes by patient plasma [1]: statistically significant dose-dependent decrease of hemolysis; also recorded: inhibited hemolysis to the background signal; also recorded: completely blocked at higher doses | increase in transfused platelets compared with control ([2]; 160 mg/kg infused 30 seconds before transfusion, 0.5 minutes after transfusion, P=0.05, FIG. 12A): 2 fold | stained transfused platelets, representative flow cytometry ([2]; 160 mg/kg, 0.5 minutes after transfusion, vs vehicle, FIG. 11): increased numbers of stained transfused platelets | amount of transfused platelets compared with control ([2]; 160 mg/kg, later time points than 0.5 minutes): no significant difference in the amount of transfused platelets | decrease in total platelet count relative to 30 seconds after transfusion ([2]; unstained platelets, two minutes (P=0.04) and 20 minutes (P=0.03), FIG. 12B): Statistically significant greater decreases in the platelet count were found for saline-treated versus PA-dPEG24-treated animals | iC3b bound to platelets ([3]; 0.8 mM): level similar to that of the background level measured for sensitizing antibody alone | iC3b opsonization of platelets, dose response ([3]; sensitizing antibody and NHS, increasing concentrations, FIG. 6A): decreased iC3b opsonization of the platelets in a dose-dependent manner | H2O Soluble [4]: No | viability of human platelets in rat sera [5]: dose-dependent improvement in platelet viability; also recorded: improved survival for human platelets in rat sera for all doses tested compared to control | systemic inhibition of complement activation (complement activation): > 90%
